Target: Glutathione-disulfide reductase (Escherichia coli O157:H7, UniProt A0A0H3JIZ9)
Assay: Enzyme Assay
Experimental: The enzyme activities in the absence of drugs or chemicals were taken as 100%. For each drug or chemical, an activity%-(drug) graph was drawn and drug concentrations producing 50% inhibition were calculated for the inhibitors.

Chain of Glutathione-disulfide reductase (A0A0H3JIZ9 whole entry): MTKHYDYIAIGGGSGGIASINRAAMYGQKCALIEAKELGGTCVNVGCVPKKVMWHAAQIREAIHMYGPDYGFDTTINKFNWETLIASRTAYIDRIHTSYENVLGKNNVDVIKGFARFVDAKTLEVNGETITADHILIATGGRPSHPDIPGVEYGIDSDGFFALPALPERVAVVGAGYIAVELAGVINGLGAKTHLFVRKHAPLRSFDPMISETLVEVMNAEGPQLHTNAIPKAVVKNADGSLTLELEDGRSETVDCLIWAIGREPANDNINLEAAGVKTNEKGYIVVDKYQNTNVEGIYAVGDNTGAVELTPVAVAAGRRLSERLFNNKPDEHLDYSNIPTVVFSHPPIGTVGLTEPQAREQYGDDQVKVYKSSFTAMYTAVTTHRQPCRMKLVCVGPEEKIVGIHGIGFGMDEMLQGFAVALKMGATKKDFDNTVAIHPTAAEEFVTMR

## CC(CCC(=O)Nc1nnc(S(N)(=O)=O)s1)C1CCC2C3CCC4CC(O)CCC4(C)C3CCC12C (centres undefined) [Sulfonamide derivative, 1]
  IC50: 47.1 µM
  Ki: 72.3 µM

## CC(CCC(=O)Nc1nnc(S(N)(=O)=O)s1)C1CCC2C3C(O)CC4CC(O)CCC4(C)C3CCC12C (centres undefined) [Sulfonamide derivative, 2]
  IC50: 4.5 µM
  Ki: 6.1 µM
